Experimental data published in PubChem BioAssay (NCI).
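Results reflect a 48-hour exposure of cells in 96-well plates to compound at five concentrations. TGI is the concentration that stops growth completely.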

What was measured:
Assay in all cases: DTP human tumour cell line panel, 48 h
[1] = tested on: HT29 colon
[2] = tested on: A498 renal
[3] = tested on: SN12C renal
[4] = tested on: COLO 205 colon
[5] = tested on: MALME-3M melanoma
[6] = tested on: TK-10 renal
[7] = tested on: NCI-H460 lung
[8] = tested on: NCI-H522 lung
[9] = tested on: IGROV1 ovarian
[10] = tested on: HCT-15 colon

| Compound | TGI [1] [µM] | TGI [2] [µM] | TGI [3] [µM] | TGI [4] [µM] | TGI [5] [µM] | TGI [6] [µM] | TGI [7] [µM] | TGI [8] [µM] | TGI [9] [µM] | TGI [10] [µM] |
| --- | --- | --- | --- | --- | --- | --- | --- | --- | --- | --- |
| CC(C)C(Sc1nc(-c2ccccc2)c(-c2ccccc2)[nH]1)C(=O)N/N=C/c1ccc(Cl)cc1 (stereo not given) | 36.9 | 43.2 | 36.3 | 35.5 | 47.7 | > 100 | 52.8 | 41.7 | 48.8 | 59.3 |
| CCOC(=O)Cn1nnc2ccc(Nc3nc4ccccc4nc3C(=O)OCC)cc21 | > 100 | > 100 | > 100 | > 100 | > 100 | > 100 | > 100 | > 100 | > 100 | > 100 |
| Nc1nc(N)c2cc(-c3cc4ccccc4[nH]3)ccc2n1 | 38.9 | 32.7 | > 100 | 24 | 30.4 | 37.2 | 45.8 | 42.4 | 33.4 | 55 |
| CN(C)CC1CCC/C(=C\c2ccc(Cl)c(Cl)c2)C1=O (stereo not given) | > 33.9 | 26.9 | 8.79 | 7.27 | 20.3 | 8.19 | 28 | 4.1 | 12.1 | 6.33 |
| Cc1ccc2[nH]c3c(c2c1)C1CCC(C(C)(C)C)CC1C1C(=O)N(c2ccc(Oc4ccccc4)cc2)C(=O)C31 (stereo not given) | > 100 | 31.5 | 37 | > 100 | 41.9 | 84.4 | > 100 | 45 | > 100 | > 100 |
| COc1cc(/C=C2\CC3C4CC=C5C[C@@H](O)CC[C@]5(C)C4CC[C@]3(C)\C2=N\O)cc(OC)c1OC (stereo not given in full) | > 100 | 42.6 | 54.1 | 16.9 | 50 | > 100 | 54.9 | > 100 | > 100 | 38.5 |
| O=S(=O)(O)c1cc(O)c(N=NC2S(=O)(=O)OCCOS2(=O)=O)c2ccccc12 | > 100 | > 100 | > 100 | > 100 | > 100 | > 100 | > 100 | > 100 | > 100 | > 100 |
| CCCCOc1ccc(/C=C/C2=[N+](CCO)CCO2)cc1 | 31.4 | > 100 | > 100 | 54.3 | > 100 | > 100 | > 100 | > 100 | > 100 | > 100 |
| COP(=O)(OC)[C@@](O)(c1ccccc1)[C@@H](O)[C@H](O)c1ccccc1 | > 100 | > 100 | > 100 | > 100 | > 100 | > 100 | > 100 | > 100 | > 100 | > 100 |
| Cn1c2ccccc2n2c(=O)c(-c3ccc(Cl)cc3)nnc12 | > 100 | > 100 | > 100 | > 100 | > 100 | > 100 | > 100 | > 100 | > 100 | > 100 |
| CCOP(=O)(OCC)/C(C#N)=C/c1nc[nH]c1C | > 100 | > 100 | > 100 | > 100 | > 100 | > 100 | > 100 | > 100 | > 100 | > 100 |
| CN(C)CCNc1c(O)c2c(c(O)c1Cl)C(=O)C=CC2=O | 3.29 | 9.74 | 3.41 | 3.47 | 3.64 | 5.68 | 3.63 | 3.52 | 3 | 4.29 |
| Cc1cc(C)c2c(-c3ccccc3)cc(=O)[nH]c2c1 | > 100 | > 100 | > 100 | > 100 | > 100 | > 100 | > 100 | > 100 | > 100 | > 100 |
| COc1nc2ncc([C@@H](OC(C)=O)[C@@H](COC(C)=O)OC(C)=O)nc2c(=O)n1C | > 100 | > 100 | > 100 | > 100 | > 100 | > 100 | > 100 | > 100 | > 100 | > 100 |
| CCOc1cc2c(cc1OC)c[n+](C)c1c3cc(OC)c(OC)cc3ccc21 | > 100 | > 100 | > 100 | > 100 | > 100 | > 100 | > 100 | > 100 | > 100 | > 100 |
| COC(=O)C1=C(C(=O)OC)C23CC4CCC2(C(=O)C1O3)C4(C)C (stereo not given) | > 100 | > 100 | > 100 | > 100 | > 100 | > 100 | > 100 | 48.8 | > 100 | > 100 |
| CC1=C[C@H](C[C@]2(C)c3c(c4c(C)cccc4oc3=O)O[C@@H]2C)OC1=O | > 100 | > 100 | > 100 | > 100 | > 100 | > 100 | > 100 | 49.6 | > 100 | > 100 |
| CCCCOC(=O)Nc1ccc(S(=O)(=O)Nc2c(Cl)cccc2Cl)cc1 | 32 | 63.1 | > 100 | 34.3 | 62.7 | 77.9 | > 100 | > 100 | 79.5 | 79.5 |
